Patent US20060069132A1, “Azolecarboxamide herbicides” (priority 2004, published 2006)
Like-named read-outs stand apart in the source and are kept apart here.

Key:
large crabgrass = experiment: Test A pre-/postemergence herbicide test; format: in vivo, Digitaria sanguinalis; settings: for pest or weed control at 125 g/ha / pest or weed control at 500 g/ha: Digitaria sanguinalis, 240 h, read-out: Crabgrass, Large plant response rating; for pest or weed control at 125 g/ha: 125 g ai/ha
Outline: (§1)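 Visual injury scores on a 0–100 scale (100 = complete control) taken about ten days post-treatment in greenhouse against untreated controls; dash means no result. Treatments: preemergence soil spray and postemergence spray to runoff on one- to two-leaf plants 2 to 10 cm tall, surfactant-containing formulation.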

barnyardgrass = experiment: Test A pre-/postemergence herbicide test; format: in vivo, Echinochloa crus-galli; settings: for pest or weed control at 125 g/ha / pest or weed control at 500 g/ha: Echinochloa crus-galli, 240 h, read-out: Barnyardgrass plant response rating; for pest or weed control at 125 g/ha: 125 g ai/ha
Outline: as §1

giant foxtail = experiment: Test A pre-/postemergence herbicide test; format: in vivo, Setaria faberi; settings: for pest or weed control at 125 g/ha / pest or weed control at 500 g/ha: Setaria faberi, 240 h, read-out: Foxtail, Giant plant response rating; for pest or weed control at 125 g/ha: 125 g ai/ha
Outline: as §1

ducksalad [1] = experiment: Test C flooded paddy test; format: in vivo, Heteranthera limosa
ducksalad [2] = experiment: Test B flooded paddy test; format: in vivo, Heteranthera limosa; settings: scale 0 to 100 (0 no effect, 100 complete control); for Ducksalad plant response rating / pest or weed control at 1000 g/ha: 1000 g ai/ha
Outline: (§2)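 Plants grow to 1- to 4-leaf stage (2–18 cm) for postemergence spraying, or to 2-leaf stage for the paddy test. Formulated compound is applied. Greenhouse holding lasts 13–15 days. Response is scored visually relative to controls, 0 no effect to 100 complete control; a dash means no result.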

blackgrass = experiment: Test B postemergence herbicide test; format: in vivo, Alopecurus myosuroides
Outline: as §2

[3] = Postemergence, 500 g ai/ha, 0 to 100 scale, 0 no effect, 100 complete control
[4] = Postemergence, 2000 g ai/ha, 0 to 100 scale, 0 no effect, 100 complete control
[5] = Preemergence, 500 g ai/ha, visual rating, 0 to 100 scale (0 no effect, 100 complete control)
[6] = Preemergence, 2000 g ai/ha, visual rating, 0 to 100 scale (0 no effect, 100 complete control)
[7] = 125 g ai/ha, scale 0 to 100 (0 no effect, 100 complete control)
[8] = 250 g ai/ha, scale of 0 to 100, 0 is no effect, 100 is complete control
[9] = 500 g ai/ha, visual rating after 12 to 14 days, scale 0 to 100 (0 no effect, 100 complete control)
[10] = postemergence, 125 g ai/ha; visual rating, scale 0 (no effect) to 100 (complete control)
[11] = preemergence, 500 g ai/ha, visual injury, 0 to 100 scale (0 no effect, 100 complete control)
[12] = 125 g ai/ha; visual rating, scale 0 (no effect) to 100 (complete control); postemergence
[13] = postemergence, 500 g ai/ha; scale 0 to 100, 0 is no effect, 100 is complete control
[14] = post-emergence, Postemergence, 0 to 100 scale, 0 no effect, 100 complete control
[15] = post-emergence, Postemergence, 500 g ai/ha, 0 to 100 scale, 0 no effect, 100 complete control
[16] = pre-emergence, preemergence, visual injury, 0 to 100 scale (0 no effect, 100 complete control)
[17] = pre-emergence, preemergence, 500 g ai/ha, visual injury, 0 to 100 scale (0 no effect, 100 complete control)
[18] = Alopecurus myosuroides, post-emergence, 336 h; postemergence, 125 g ai/ha; visual rating, scale 0 (no effect) to 100 (complete control); read-out: Blackgrass plant response rating

Row | Compound | Crabgrass, Large plant response rating (large crabgrass; [3]) | Plant response rating, Crabgrass, Large (large crabgrass; [4]) | Crabgrass, Large plant response rating (large crabgrass; [6]) | Barnyardgrass plant response rating (barnyardgrass; [3]) | Plant response rating, Barnyardgrass (barnyardgrass; [4]) | Barnyardgrass plant response rating (barnyardgrass; [6]) | Foxtail, Giant plant response rating (giant foxtail; [3]) | Plant response rating, Foxtail, Giant (giant foxtail; [4]) | Foxtail, Giant plant response rating (giant foxtail; [6]) | Ducksalad plant response rating (ducksalad [1]; [7]) | Ducksalad plant response rating (ducksalad [1]; [8]) | Plant response rating, Ducksalad (ducksalad [1]; [9]) | Ducksalad plant response rating (ducksalad [1]; 62 g ai/ha, scale 0 to 100) | Ducksalad plant response rating (ducksalad [2]) | Blackgrass plant response rating (blackgrass; [13]) | also measured
1 | C=Cn1nc(C(C)(C)C)cc1C(=O)Nc1cccc(C(C)=O)c1 [Compound 127] | 15 | 35 | 85 | 30 | 50 | 30 | 30 | 30 | 35 | 15 | 20 | 80 |  |  |  | Crabgrass, Large plant response rating (large crabgrass; [5]): 75; Barnyardgrass plant response rating (barnyardgrass; [5]): 20; Foxtail, Giant plant response rating (giant foxtail; [5]): 20; Ducksalad plant response rating (ducksalad [1]; 62 g ai/ha, scale 0 to 100 (0 no effect, 100 complete control)): 0; Ducksalad plant response rating (ducksalad [2]; visual rating, 13 to 15 days): 90; Blackgrass plant response rating (blackgrass; [10]): 10; Blackgrass plant response rating (blackgrass; postemergence, 500 g ai/ha; visual rating, scale 0 (no effect) to 100 (complete control)): 10
2 | CCOC(=O)c1cccc(NC(=O)c2cc(C(C)(C)C)nn2C)n1 [Compound 313] | 70 | 100 | 95 | 80 | 95 | 90 | 70 | 80 | 90 | 30 |  |  | 0 | 80 | 10 | Crabgrass, Large plant response rating (large crabgrass; [11]): 85; Barnyardgrass plant response rating (barnyardgrass; [11]): 80; Foxtail, Giant plant response rating (giant foxtail; [11]): 75; Ducksalad plant response rating (ducksalad [1]; 16 g ai/ha, scale 0 to 100): 0; Ducksalad plant response rating (ducksalad [1]; 31 g ai/ha, scale 0 to 100): 0; Blackgrass plant response rating (blackgrass; [12]): 0
3 | CCNC(=O)c1cccc(NC(=O)c2nc(C(C)(C)C)nn2CC)c1 [Compound 446, 3-(1,1-dimethylethyl)-1-ethyl-N-[3-[(ethylamino)carbonyl]phenyl]-1H-1,2,4-triazole-5-carboxamide] |  |  |  |  |  |  |  |  |  |  |  |  |  |  |  | pest or weed control at 125 g/ha (large crabgrass; [14]): 45%; pest or weed control at 500 g/ha (large crabgrass; [15]): 65%; pest or weed control at 125 g/ha (large crabgrass; [16]): 10%; pest or weed control at 500 g/ha (large crabgrass; [17]): 40%; pest or weed control at 125 g/ha (barnyardgrass; [14]): 80%; pest or weed control at 500 g/ha (barnyardgrass; [15]): 90%; pest or weed control at 125 g/ha (barnyardgrass; [16]): 55%; pest or weed control at 500 g/ha (barnyardgrass; [17]): 85%; pest or weed control at 125 g/ha (giant foxtail; [14]): 75%; pest or weed control at 500 g/ha (giant foxtail; [15]): 90%; pest or weed control at 125 g/ha (giant foxtail; [16]): 70%; pest or weed control at 500 g/ha (giant foxtail; [17]): 95%; pest or weed control at 125 g/ha (ducksalad [2]; Heteranthera limosa, 336 h, 125 g ai/ha, read-out: Ducksalad plant response rating): 70%; pest or weed control at 500 g/ha (ducksalad [2]; Heteranthera limosa, 336 h, 500 g ai/ha, read-out: Ducksalad plant response rating): 80%
4 | CCNC(=O)c1ccc(F)c(NC(=O)c2c3c(nn2CC)C(C)(C)CC3)c1 [Compound 353] |  |  |  |  |  |  |  |  |  | 0 | 30 | 30 | 0 | 80 | 40 | Blackgrass plant response rating (blackgrass; [12]): 10
5 | CCc1cn(C(C)(C)C)nc1C(=O)Nc1cccc(C(=O)N(CC)CC)c1 [Compound 168, N-[3-[(diethylamino)carbonyl]phenyl]-1-(1,1-dimethylethyl)-4-ethyl-1H-pyrazole-3-carboxamide] |  |  |  |  |  |  |  |  |  |  |  |  |  |  |  | pest or weed control at 1000 g/ha (ducksalad [2]; Heteranthera limosa, 336 h, visual rating, 13 to 15 days, read-out: Ducksalad plant response rating): 70%; pest or weed control at 31 g/ha (blackgrass; Alopecurus myosuroides, post-emergence, 336 h; postemergence, 31 g ai/ha; scale 0 to 100; read-out: Blackgrass plant response rating): 0%; pest or weed control at 125 g/ha (blackgrass; [18]): 10%
6 | C=CCN(C)C(=O)c1cccc(NC(=O)c2cc(C(C)(C)C)nn2CC)c1 [Compound 285] | 15 | 35 | 85 | 55 | 80 | 90 | 25 | 55 | 90 | 80 | 90 | 90 | 45 | 90 | 30 | Crabgrass, Large plant response rating (large crabgrass; [11]): 60; Barnyardgrass plant response rating (barnyardgrass; [11]): 70; Foxtail, Giant plant response rating (giant foxtail; [11]): 60; Blackgrass plant response rating (blackgrass; [10]): 30
7 | CCn1nc(C(C)(C)C)c(F)c1C(=O)Nc1cc(C(=O)N(C)C)ccc1F [Compound 276, N-[5-[(dimethylamino)carbonyl]-2-fluorophenyl]-3-(1,1-dimethylethyl)-1-ethyl-4-fluoro-1H-pyrazole-5-carboxamide] |  |  |  |  |  |  |  |  |  |  |  |  |  |  |  | pest or weed control at 62 g/ha (ducksalad [1]; Heteranthera limosa, 62 g ai/ha, scale 0 to 100, read-out: Ducksalad plant response rating): 0%; pest or weed control at 125 g/ha (ducksalad [1]; Heteranthera limosa, 125 g ai/ha, scale 0 to 100 (0 no effect, 100 complete control), read-out: Ducksalad plant response rating): 20%; pest or weed control at 250 g/ha (ducksalad [1]; Heteranthera limosa, 250 g ai/ha, scale of 0 to 100, 0 is no effect, 100 is complete control, read-out: Ducksalad plant response rating): 70%; pest or weed control at 500 g/ha (ducksalad [1]; Heteranthera limosa, 500 g ai/ha, visual rating after 12 to 14 days, scale 0 to 100 (0 no effect, 100 complete control), read-out: Plant response rating, Ducksalad): 85%; pest or weed control at 1000 g/ha (ducksalad [2]; Heteranthera limosa, 336 h, read-out: Ducksalad plant response rating): 80%; pest or weed control at 125 g/ha (blackgrass; [18]): 30%; pest or weed control at 500 g/ha (blackgrass; Alopecurus myosuroides, post-emergence, 336 h; postemergence, 500 g ai/ha; scale 0 to 100, 0 is no effect, 100 is complete control; read-out: Blackgrass plant response rating): 40%
